Values quoted from earlier work in patent publication US20050003341A1, “Drug discovery assays based on the biology of atherosclerosis, cancer, and alopecia” (priority 2003, published 2005).
Like-named read-outs stand apart in the source and are kept apart here.

How the values were obtained:
U937 = settings: p<0.05
TF [1] = system: TF
TF [2] = settings: for Cu^+2 induced procoagulant activity: probucol 20, vitamin E 50, BHT 50, U74389G 20 μmol/L
AT1-receptor = settings: 25 mg/kg/day
apoE(−/−) mice = settings: aortic sinus, 48 hours post injection
TF [3] = settings: cells incubated with AGE-alb
AR gene = settings: 10^−8 M
CD18 = settings: neutrophils, 10^−8 M for 10 min
[4] = system: cell attachment to fibronectin; settings: for cell attachment to coated plates: six ocular melanoma cell lines (Mac Neil 1994A)
NF-κB [5] = system: NF-κB
NF-κB [6] = system: NF-κB; remark: listed apart in the source
apo(a) transgenic mice = settings: 15 μg, 12 weeks
ACE [7] = system: ACE
ACE [8] = settings: 0.5 mg/kg/day, p<0.05
isolated hair follicles = settings: for scalp hair growth: Philpott 1996
VCAM-1 = settings: 36 dyn/cm^2; 7.0-13.99 minutes
U251.3 glioma cells = settings: 3-100 μg/ml, dose dependently
TF [9] = settings: cultured monocytes
[10] = a variety of cells, cited studies
[11] = Peterziel 1999, dependent on presence of AR

Molecule: CC(C)CCC[C@@H](C)[C@H]1CC[C@H]2[C@@H]3C(=O)C=C4C[C@@H](O)CC[C@]4(C)[C@H]3CC[C@]12C [7-ketocholesterol]
- GSH content compared to controls (U937): lower GSH content

Molecule: CNc1ccc2oc(C[C@H]3O[C@@]4(CC[C@H]3C)O[C@H]([C@H](C)C(=O)c3ccc[nH]3)[C@H](C)C[C@H]4C)nc2c1C(=O)O [A 23187]
- ERK phosphorylation (ERK; [10]): increase

Molecule: CC1=C(/C=C/C(C)=C/C=C/C(C)=C/C(=O)O)C(C)(C)CCC1 [ATRA, all-trans retinoic acid]
- rate of TF transcription, nuclear run-on (TF [1]; LPS 10 μg/ml 1 hour, ATRA 10^−5 mol/L 30 minutes before LPS): decreased TF transcription
- TF mRNA (TF [1]; THP-1, 30 minutes, 10^−5 mol/L): decrease
- LUC activity relative to untreated cells (TF [1]; pTF(−2106)LUC transfected THP-1, 30 minutes, 10^−5 mol/L): no decrease

Molecule: Cc1cc(C(C)(C)C)c(O)c(C(C)(C)C)c1 [BHT]
- Cu^+2 induced procoagulant activity (TF [2]): inhibited

Molecule: CCCCc1cc(C(=O)OC)cc(=O)n1Cc1ccc(-c2ccccc2-c2nnn[nH]2)cc1F [Bay 10-6734]
- fat-stained area in the aorta (AT1-receptor; controls 28.6±7.5%): 5.3±1.4%
- % of macrophage stained area/total plaque cross sectional area (AT1-receptor; controls 58.8±15%): 1±0.2%

Molecule: [Cu+2] [Cu^+2]
- procoagulant activity (TF [2]; 10 hours, up to 20 μmol/L, without 8-hydroxyquinoline): no effect
- TF mRNA levels (TF [2]; at 2 hours, relative to basal): 50%
- increase in TF mRNA (TF [2]; at 6 hours): 3.5 fold

Molecule: C[C@]12CCC(=O)C[C@@H]1CC[C@@H]1[C@@H]2CC[C@]2(C)[C@@H](O)CC[C@@H]12 [DHT, Dihydrotestosterone]
- ERK phosphorylation (ERK): **The study reports no increase in ERK phosphorylation in LNCaP or PC-3 cells following treatment with DHT.
- Elk-1 transcription activity (ERK): *The study also showed an increase in Elk-1 transcription activity following treatment with the androgen DHT, or the antiandrogens casodex and hydroxyflutamide. ERK phosphorylation activates Elk-1, which is a member of the ETS family.

Molecule: CCCCCCCCCCCCCCCC(=O)OC[C@H](COP(=O)([O-])OCC[N+](C)(C)C)OC(=O)CCCCCCCCCCCCCCC [DPPC, dipalmitoylphosphatidylcholine]
- macrophage content (apoE(−/−) mice; saline 10.4±3.4): 9.3±5.8 % of plaque area
- lipid content (apoE(−/−) mice; saline 19.6±6.3): 18.1±4.7 % of plaque area

Molecule: CC(=O)N[C@@H](CS)C(=O)O [NAC, N-acetylcysteine]
- TF activity (TF [3]): concentration dependent inhibition

Molecule: C[C@]1(O)CC[C@H]2[C@@H]3CCC4=CC(=O)CCC4=C3C=C[C@@]21C [R1881, methyltrienolone]
- transcription of the endogenous AR gene, of control levels (AR gene; 8 hours): 85%
- transcription of the endogenous AR gene, of control levels (AR gene; 24 hours): 73%

Molecule: CCCCCCCCCCCCCC(=O)O[C@@H]1[C@@H](C)[C@@]2(O)[C@@H](C=C(CO)C[C@]3(O)C(=O)C(C)=C[C@@H]23)[C@@H]2C(C)(C)[C@]12OC(C)=O [TPA, phorbol 12-myristate 13-acetate]
- ERK phosphorylation (ERK; [10]): increase

Molecule: C[C@]12C=CC(=O)C=C1CC[C@@H]1C2=CC[C@]2(C)[C@@H](C(=O)CN3CCN(c4cc(N5CCCC5)nc(N5CCCC5)n4)CC3)CC[C@@H]12.O=C(O)/C=C\C(=O)O [U74389G]
- Cu^+2 induced procoagulant activity (TF [2]): inhibited

Molecule: CC(O)(CS(=O)(=O)c1ccc(F)cc1)C(=O)Nc1ccc(C#N)c(C(F)(F)F)c1 (centres unmarked) [casodex]
- Elk-1 transcription activity (ERK; [11]): *The study also showed an increase in Elk-1 transcription activity following treatment with the androgen DHT, or the antiandrogens casodex and hydroxyflutamide. ERK phosphorylation activates Elk-1, which is a member of the ETS family.

Molecule: CC[C@H]1CN2CCc3cc(OC)c(OC)cc3[C@@H]2C[C@@H]1C[C@H]1NCCc2cc(OC)c(OC)cc21 [emetine]
- c-mos expression and ERK phosphorylation (ERK; starfish eggs): inhibition

Molecule: CSCC[C@H](NC=O)C(=O)N[C@@H](CC(C)C)C(=O)N[C@@H](Cc1ccccc1)C(=O)O [fMLP, N-formylmethionyl-leucyl-phenylalanine]
- increase in CD18 surface membrane concentration compared to unstimulated cells (CD18): 4 fold

Molecule: CC(C)(O)C(=O)Nc1ccc([N+](=O)[O-])c(C(F)(F)F)c1 [hydroxyflutamide]
- Elk-1 transcription activity (ERK; [11]): *The study also showed an increase in Elk-1 transcription activity following treatment with the androgen DHT, or the antiandrogens casodex and hydroxyflutamide. ERK phosphorylation activates Elk-1, which is a member of the ETS family.

Molecule: C[C@H](CCC(=O)O)C[C@H](C)C[C@H](C)C(=O)/C=C(\O)[C@H](C)C[C@H](C)C/C=C/[C@@H](C)[C@@H](O)[C@@H](C)[C@@H](O)C[C@@H]1CC[C@@](C)([C@H]2CC[C@@](C)([C@@H](C)O)O2)O1 [ionomycin]
- cell attachment to coated plates [4]: Significant inhibition

Molecule: CC[C@H](C)C(=O)O[C@H]1CCC=C2C=C[C@H](C)[C@H](CC[C@@H]3C[C@@H](O)CC(=O)O3)[C@H]21 [mevastatin]
- NF-κB activation (NF-κB [5]; EC): inhibited

Molecule: O=C(O)C[C@H](O)C[C@H](O)/C=C/c1c(C2CC2)nc2ccccc2c1-c1ccc(F)cc1 [pitavastatin]
- NF-κB activation (NF-κB [5]; human kidney 293 T-cells): inhibited

Molecule: CC(C)(Sc1cc(C(C)(C)C)c(O)c(C(C)(C)C)c1)Sc1cc(C(C)(C)C)c(O)c(C(C)(C)C)c1 [probucol]
- Cu^+2 induced procoagulant activity (TF [2]): inhibited

Molecule: CCOC(=O)[C@H](CCc1ccccc1)N[C@@H](C)C(=O)N1Cc2ccccc2C[C@H]1C(=O)O [quinapril]
- NF-κB activity in atherosclerotic vessels (NF-κB [6]; rabbit femoral arteries): decreased

Molecule: CC/C(=C(\c1ccccc1)c1ccc(OCCN(C)C)cc1)c1ccccc1 [tamoxifen]
- cell attachment to ECM, fibronectin, collagen type I or IV ([4]; ZR75-1 breast cancer cells (Millon 1989)): decreased attachment
- cell attachment to fibronectin ([4]; retinal pigment epithelial (RPE) cells (Wagner 1995)): decreased attachment
- cell attachment to coated plates [4]: significant inhibition
- decrease in area of focal apo(a) accumulation (apo(a) transgenic mice): 97%
- decrease in average level of apo(a) in the vessel wall (apo(a) transgenic mice): 69%
- decrease in lesion area (apo(a) transgenic mice): 92%
- decrease in number of lipid lesions (apo(a) transgenic mice): 80%

Molecule: C[C@H](CSC(=O)c1ccccc1)C(=O)N1C[C@@H](Sc2ccccc2)C[C@H]1C(=O)O [zofenopril]
- macrophage-derived foam cells staining in the intima (ACE [7]; 1 mg/kg/day): significant decrease
- native LDL staining in the intima (ACE [7]; 1 mg/kg/day): significant decrease
- total lesion area compared to placebo (ACE [7]; zofenopril 0.05 or 1, captopril 5, enalapril 0.5 mg/kg/day): significantly decreased
- decrease in aortic corrected cumulative lesion area (ACE [8]): 34%
- decrease in common carotid corrected cumulative lesion area (ACE [8]): 39%

Molecule: NCCCCCC(=O)O [ε-ACA]
- Lp(a) binding to fibronectin (fibronectin): not effective
- plasminogen binding to fibronectin (fibronectin): inhibited

Molecule: IL-1β: interleukin 1β
- hair growth (isolated hair follicles; Hoffmann 1997, 6 days, A 23187 2 μM, TPA 1 μM, IL-1β 100 ng per ml): significantly inhibited hair growth
- scalp hair growth (isolated hair follicles): inhibition

Molecule: MCP-1: a chemokine
- average percent of monocyte remaining bound (VCAM-1): 46%

Molecule: TNC: large ECM glycoprotein
- migration distance (U251.3 glioma cells): increased migration distance

Molecule: TNFα
- ERK phosphorylation (ERK; [10]): increase
- scalp hair growth (isolated hair follicles): inhibition

Molecule: angiotensin II: angiotensin II (DRVYIHPF; Angiotensin-2; UniProt P01019 25-32, looked up)
- NF-κB activation (NF-κB [6]; cultured monocytes and VSMC): increased
- TF antigen and mRNA (TF [9]): dose-depended increase

Molecule: apo(a): apolipoprotein(a)
- plasminogen binding to fibronectin (fibronectin): completely abolished

Molecule: estrogen
- ERK phosphorylation (ERK; [10]): increase

Molecule: vitamin E
- LPS induced TF expression (TF [2]): inhibited
- Cu^+2 induced procoagulant activity (TF [2]): inhibited

B1: IL-1a: interleukin 1α (protein, UniProt P01583 113-271, looked up)
Interleukin-1 alpha: SAPFSFLSNVKYNFMRIIKYEFILNDALNQSIIRANDQYLTAAALHNLDEAVKFDMGAYKSSKDDAKITVILRISKTQLYVTAQDEDQPVLLKEMPEIPKTITGSETNLLFFWETHGTKNYFTSVAHPNLFIATKQDYWVCLAGGPPSITDFQILENQA
- scalp hair growth (isolated hair follicles): inhibition
